Laboratory results reported in ChEMBL document CHEMBL1201862, “PubChem BioAssay data set” (2004).
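Exposure lasted 48 hours, with cells grown in 96-well plates and compounds tested at five concentrations. Here, GI50 denotes the concentration required for 50% inhibition of growth.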 Active and inactive are the calls of the source. Rule as the data show it: active = GI50 up to about 1.1 µM and inactive = higher.

What was measured:
Test in all cases: growth of human tumour cells (NCI), 48 h
NCI-H23 = tested on: NCI-H23
HOP-92 = tested on: HOP-92
A549 = tested on: A549
SF-539 = tested on: SF-539
TK-10 = tested on: TK-10
EKVX = tested on: EKVX
KM12 = tested on: KM12
MOLT-4 = tested on: MOLT-4
HOP-62 = tested on: HOP-62
DLD-1 = tested on: DLD-1
SK-MEL-28 = tested on: SK-MEL-28
HT-29 = tested on: HT-29
SK-OV-3 = tested on: SK-OV-3
NCI-H460 = tested on: NCI-H460
SF-268 = tested on: SF-268
M19-MEL = tested on: M19-MEL
SN12C = tested on: SN12C
A498 = tested on: A498
K562 = tested on: K562
NCI-H522 = tested on: NCI-H522
CAKI-1 = tested on: CAKI-1
M14 = tested on: M14
SW-620 = tested on: SW-620
Malme-3M = tested on: Malme-3M
SK-MEL-5 = tested on: SK-MEL-5
DMS-114 = tested on: DMS-114
SF-295 = tested on: SF-295
UACC-257 = tested on: UACC-257
OVCAR-4 = tested on: OVCAR-4
SK-MEL-2 = tested on: SK-MEL-2
OVCAR-5 = tested on: OVCAR-5
OVCAR-8 = tested on: OVCAR-8
LXFL 529 = tested on: LXFL 529
LOX IMVI = tested on: LOX IMVI
KM-20L2 = tested on: KM-20L2
ACHN = tested on: ACHN
SNB-19 = tested on: SNB-19
UACC-62 = tested on: UACC-62
RXF 393 = tested on: RXF 393
SNB-78 = tested on: SNB-78
786-0 = tested on: 786-0
UO-31 = tested on: UO-31
CCRF-CEM = tested on: CCRF-CEM
HL-60 = tested on: HL-60
SR = tested on: SR
U-251 = tested on: U-251
DMS-273 = tested on: DMS-273
IGROV-1 = tested on: IGROV-1
NCI-H226 = tested on: NCI-H226
RPMI-8226 = tested on: RPMI-8226
HCT-15 = tested on: HCT-15
HCC 2998 = tested on: HCC 2998
HOP-18 = tested on: HOP-18
OVCAR-3 = tested on: OVCAR-3
SNB-75 = tested on: SNB-75
HCT-116 = tested on: HCT-116
COLO 205 = tested on: COLO 205

## O=c1cc2n(c(=O)[nH]1)C1OC(C(O)C1O)[C@@H]2CCO (stereo not given in full)
NCI-H23
  GI50: > 100 µM (inactive)
HOP-92
  GI50: > 100 µM (inactive)
A549
  GI50: > 100 µM (inactive)
SF-539
  GI50: > 100 µM (inactive)
TK-10
  GI50: > 100 µM (inactive)
EKVX
  GI50: > 100 µM (inactive)
KM12
  GI50: > 100 µM (inactive)
MOLT-4
  GI50: > 100 µM (inactive)
HOP-62
  GI50: > 100 µM (inactive)
DLD-1
  GI50: > 100 µM (inactive)
SK-MEL-28
  GI50: > 100 µM (inactive)
HT-29
  GI50: > 100 µM (inactive)
SK-OV-3
  GI50: > 100 µM (inactive)
NCI-H460
  GI50: > 100 µM (inactive)
SF-268
  GI50: > 100 µM (inactive)
M19-MEL
  GI50: > 100 µM (inactive)
SN12C
  GI50: > 100 µM (inactive)
A498
  GI50: > 100 µM (inactive)
K562
  GI50: > 100 µM (inactive)
NCI-H522
  GI50: > 100 µM (inactive)
CAKI-1
  GI50: > 100 µM (inactive)
M14
  GI50: > 100 µM (inactive)
SW-620
  GI50: > 100 µM (inactive)
Malme-3M
  GI50: > 100 µM (inactive)
SK-MEL-5
  GI50: > 100 µM (inactive)
DMS-114
  GI50: > 100 µM (inactive)
SF-295
  GI50: > 100 µM (inactive)
UACC-257
  GI50: > 100 µM (inactive)
OVCAR-4
  GI50: > 100 µM (inactive)
SK-MEL-2
  GI50: > 100 µM (inactive)
OVCAR-5
  GI50: > 100 µM (inactive)
OVCAR-8
  GI50: > 100 µM (inactive)
LXFL 529
  GI50: > 100 µM (inactive)
LOX IMVI
  GI50: > 100 µM (inactive)
KM-20L2
  GI50: > 100 µM (inactive)
ACHN
  GI50: > 100 µM (inactive)
SNB-19
  GI50: > 100 µM (inactive)
UACC-62
  GI50: > 100 µM (inactive)
RXF 393
  GI50: > 100 µM (inactive)
SNB-78
  GI50: > 100 µM (inactive)
786-0
  GI50: > 100 µM (inactive)
UO-31
  GI50: > 100 µM (inactive)
CCRF-CEM
  GI50: > 100 µM (inactive)
HL-60
  GI50: > 100 µM (inactive)
SR
  GI50: > 100 µM (inactive)
U-251
  GI50: > 100 µM (inactive)
DMS-273
  GI50: > 100 µM (inactive)
IGROV-1
  GI50: > 100 µM (inactive)
NCI-H226
  GI50: > 10 µM (inactive)

## O=C1[C@H]2ON(c3ccccc3)C(c3cccc([N+](=O)[O-])c3)[C@H]2C(=O)N1c1ccc(Cc2ccc(N3C(=O)[C@@H]4ON(c5ccccc5)C(c5cccc([N+](=O)[O-])c5)[C@@H]4C3=O)cc2)cc1 (stereo not given in full)
NCI-H23
  GI50: > 100 µM (inactive)
RPMI-8226
  GI50: > 100 µM (inactive)
A549
  GI50: > 100 µM (inactive)
HCT-15
  GI50: > 100 µM
SF-539
  GI50: > 100 µM (inactive)
TK-10
  GI50: > 100 µM (inactive)
EKVX
  GI50: > 100 µM (inactive)
KM12
  GI50: > 100 µM (inactive)
HCC 2998
  GI50: > 100 µM (inactive)
HOP-18
  GI50: > 100 µM (inactive)
MOLT-4
  GI50: > 100 µM (inactive)
OVCAR-3
  GI50: > 100 µM (inactive)
HOP-62
  GI50: > 100 µM (inactive)
SNB-75
  GI50: > 100 µM (inactive)
DLD-1
  GI50: > 100 µM (inactive)
SK-MEL-28
  GI50: > 100 µM (inactive)
HT-29
  GI50: > 100 µM (inactive)
SK-OV-3
  GI50: > 100 µM (inactive)
NCI-H460
  GI50: > 100 µM (inactive)
SF-268
  GI50: > 100 µM (inactive)
M19-MEL
  GI50: > 100 µM (inactive)
SN12C
  GI50: > 100 µM (inactive)
A498
  GI50: 36.5 µM (inactive)
HCT-116
  GI50: > 100 µM (inactive)
K562
  GI50: > 100 µM (inactive)
COLO 205
  GI50: 42.3 µM (inactive)
NCI-H522
  GI50: > 100 µM (inactive)
CAKI-1
  GI50: 38.6 µM (inactive)
M14
  GI50: 21.6 µM (inactive)
SW-620
  GI50: > 100 µM (inactive)
Malme-3M
  GI50: 75 µM (inactive)
SK-MEL-5
  GI50: 43.9 µM (inactive)
DMS-114
  GI50: > 100 µM (inactive)
SF-295
  GI50: > 100 µM (inactive)
UACC-257
  GI50: > 100 µM (inactive)
OVCAR-4
  GI50: > 100 µM (inactive)
SK-MEL-2
  GI50: > 100 µM (inactive)
OVCAR-5
  GI50: > 100 µM (inactive)
OVCAR-8
  GI50: > 100 µM (inactive)
LXFL 529
  GI50: > 100 µM (inactive)
LOX IMVI
  GI50: > 100 µM (inactive)
KM-20L2
  GI50: > 100 µM (inactive)
ACHN
  GI50: > 100 µM (inactive)
SNB-19
  GI50: > 100 µM (inactive)
UACC-62
  GI50: 47.4 µM (inactive)
RXF 393
  GI50: > 100 µM (inactive)
SNB-78
  GI50: > 100 µM (inactive)
786-0
  GI50: > 100 µM (inactive)
UO-31
  GI50: > 100 µM (inactive)
CCRF-CEM
  GI50: > 100 µM (inactive)
HL-60
  GI50: > 100 µM (inactive)
SR
  GI50: > 100 µM (inactive)
U-251
  GI50: > 100 µM (inactive)
DMS-273
  GI50: > 100 µM (inactive)
IGROV-1
  GI50: > 100 µM (inactive)
NCI-H226
  GI50: > 100 µM (inactive)
